Experimental data as given in PMC10641811 (Journal of Medicinal Chemistry, 2023).

How the values were obtained:
[1] = system: diacylglycerol kinase α (DGKα); settings: at 5 μM; cited from earlier work
[2] = system: δ-isozyme of DGK; settings: at 5 μM; cited from earlier work
[3] = system: κ-isozyme of DGK; settings: at 5 μM; cited from earlier work
[4] = system: ι-isozyme of DGK; settings: at 5 μM; cited from earlier work
[5] = assay type: physicochemical; settings: for discoloration of solutions prepared for NMR: DMSO-d6 or CDCl3, ambient temperature; for discoloration when dissolved in DMSO: 5 days at ambient temperature
[6] = system: ABCC2; settings: read-out: IC50 in at least one assay; cited from earlier work
[7] = biological target: MSN/CD44 (Homo sapiens, UniProt P26038); assay type: binding; settings: for activity in MSN/CD44 TR-FRET assay: in words
[8] = system: IspF domain; settings: cited from earlier work
[9] = system: H. pylori; settings: cited from earlier work
[10] = system: Shank3 PDZ domain; settings: read-out: Shank3 IC50; cited from earlier work
[11] = biological target: NS5; settings: read-out: NS5 Ki; cited from earlier work
[12] = system: cell cycle progression; settings: at ≥30 μM; cited from earlier work
[13] = system: EZH2-EED interaction; settings: cited from earlier work
[14] = system: WT PRC2-EZH2; settings: cited from earlier work

MSN/CD44, sequence (P26038 2-295): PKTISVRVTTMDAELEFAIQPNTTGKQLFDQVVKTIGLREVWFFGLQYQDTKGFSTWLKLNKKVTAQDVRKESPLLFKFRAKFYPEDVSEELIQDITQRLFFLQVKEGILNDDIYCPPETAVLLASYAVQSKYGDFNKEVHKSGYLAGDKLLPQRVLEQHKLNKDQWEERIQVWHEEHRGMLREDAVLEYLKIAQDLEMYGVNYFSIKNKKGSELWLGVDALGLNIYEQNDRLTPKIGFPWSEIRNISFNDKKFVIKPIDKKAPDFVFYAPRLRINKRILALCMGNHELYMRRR

CC(=O)c1ccc2c(c1)C1C=CCC1C(C(=O)O)N2 (centres unmarked) [CU-4]
inhibition of α-isozyme of DGK [1]: strongly inhibit | inhibition of δ-isozyme of DGK [2]: strongly inhibit | inhibition of κ-isozyme of DGK [3]: strongly inhibit | inhibition of ι-isozyme of DGK [4]: strongly inhibit

CCOC(=O)c1ccc2c(c1)C1C=CCC1C(C(=O)OCC)N2 (centres unmarked) [Compound 1, Diethyl 3a,4,5,9b-tetrahydro-3H-cyclopenta[c]quinoline-4,8-dicarboxylate]
1H NMR analysis of samples kept in CDCl3 ([5]; CDCl3, 120 h in light): no significant changes in the spectra | stability in solution kept in the dark ([5]; DMSO-d6, dark, 72 h, 5 mg): remained a clear solution | stability in solution kept in the light ([5]; DMSO-d6, light, 72 h, 25 mg and 5 mg): decomposed and changed color (purple) | discoloration of solutions prepared for NMR ([5]; 72 h): Discoloration

O=C(O)C1Nc2c(F)cccc2C2C=CCC12 (centres unmarked) [Compound 1e]
IC50 [6]: < 30 µM

CCOC(=O)c1ccc2c(c1)C1CCCC1C(C(=O)OCC)N2 (centres unmarked) [Compound 2]
activity in MSN/CD44 TR-FRET assay [7]: inactive | discoloration when dissolved in DMSO [5]: No discoloration

O=C(O)c1ccc2c(c1)C1CCCC1C(C(=O)O)N2 (centres unmarked) [Compound 3]
activity in MSN/CD44 TR-FRET assay [7]: inactive | discoloration when dissolved in DMSO [5]: No discoloration

O=C(O)C1Nc2ccc(Oc3ccccc3)cc2C2C=CCC12 (centres unmarked) [Compound 27]
inhibitory effect in IspF domain assay [8]: did not show an inhibitory effect | inhibition of H. pylori growth [9]: only a weak inhibitor

O=C(O)[C@@H]1Nc2c(O)cc(Cl)c([N+](=O)[O-])c2[C@@H]2C=CC[C@H]12 [Compound 34]
IC50 [10]: < 250 µM

O=C(O)C1Nc2c(I)cccc2C2C=CCC12 (centres unmarked) [Compound 5660163]
Ki [11]: < 10 µM

O=C(O)c1ccc2c(c1)C1C=CCC1C(C(=O)O)N2 (centres unmarked) [Compound 5661118]
Hill coefficient ([7]; MSN/CD44 TR-FRET dose–response curve): 3.4 | discoloration of solution prepared for biological evaluation ([5]; DMSO (10 mM)): same discoloration | discoloration of solutions prepared for NMR ([5]; 72 h): Discoloration | cell cycle arrest [12]: failed to elicit cell cycle arrest

O=C(O)c1cc(-c2ccccn2)c2c(c1)C1C=CCC1C(C(=O)O)N2 (centres unmarked) [WNN2074-A009]
inhibition of the EZH2-EED interaction [13]: weak | inhibition of WT PRC2-EZH2 [14]: inhibited
